Where two headings read alike, the source gives them in different places.
Columns and labels:
[1] = target: DYRK1A kinase (Homo sapiens (Human), UniProt Q13627); assay: DYRK1A kinase assay (Ser/Thr 18 peptide Z-lyte, FRET); conditions: DYRK1A kinase; method text calls the value IC50
[2] = test system: SW480 colon carcinoma cells; assay: Cell viability assay (CellTiter-Glo) in SW480 cells; type: cell-based, human;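 note: SW480 cells stably carrying an Sp5-luciferase TCF/LEF reporter, luminescent ATP signal as viability measure, DMSO-treated cells as control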
Method: Representative compounds were screened using the assay procedure to assess the effect on cell viability as described below.
SW480 colon carcinoma cells were transduced with a lentiviral vector expressing luciferase with a human Sp5 promoter consisting of a sequence of eight TCF/LEF binding sites. SW480 cells stably expressing the Sp5-Luc reporter gene and a hygromycin resistance gene were selected by treatment with 150 μg/mL of hygromycin for 7 days. These stably transduced SW480 cells were expanded in cell culture and used for all further screening activities. Each compound was dissolved in DMSO as a 10 mM stock and used to prepare compound source plates.
For the Cell Viability Assays, the cells were plated at 2,000 cells/well in 384-well plates with a DMEM medium containing 1% fetal bovine serum, and 1% Penicillin-Streptomycin and incubated for four days hours at 37° C. and 5% CO2. Eight replicates of DMSO-treated cells served as controls and cells treated with compound were performed in duplicate.
After incubation, 10 μL of CellTiter-Glo (Promega) was added to each well allowed to incubate for approximately 12 minutes.
Dose-response curves were generated and EC50 concentration values were calculated using non-linear regression curve fit in the GraphPad Prism (San Diego, Calif.) or Dotmatics' Studies Software (Bishops Stortford, UK).

[3] = test system: LL29 cells (primary human fibroblasts derived from IPF patients), α-smooth muscle actin; assay: Inhibition of fibrotic process: αSMA in TGF-β1-treated primary human fibroblasts from IPF patients (LL29 cells); type: cell-based; conditions: Homo sapiens, Fibroblast; for EC50: 96 h, % αSMA-positive LL29 cells, TGF-β1 20 ng/mL, 4 days; for inhibition at 10 µM: read-out: percent inhibition at 10 μM
Summary of the method: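 Read-out is the percentage of αSMA-positive cells by high-content imaging, excluding SYTOX green-positive dead/apoptotic cells, normalized to TGF-β1-only wells on the same plate. LL29 cells were exposed for 4 days at 37 °C to 20 ng/mL TGF-β1 plus 11-point, 2-fold compound dilutions in 0.1% DMSO.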

[4] = target: GSK3β kinase (Homo sapiens (Human), UniProt P49841); assay: GSK3β kinase assay (Ser/Thr 09 peptide Z-lyte, FRET); type: biochemical; conditions: method text calls the value IC50;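 note: Coumarin/fluorescein emission ratio converted to percent phosphorylation against unphosphorylated (0%) and phosphorylated (100%) controls, 1 h compound incubation at room temperature, 11-point threefold dilutions from 10 µM, run in duplicate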
GSK3β kinase, sequence (P49841 whole entry): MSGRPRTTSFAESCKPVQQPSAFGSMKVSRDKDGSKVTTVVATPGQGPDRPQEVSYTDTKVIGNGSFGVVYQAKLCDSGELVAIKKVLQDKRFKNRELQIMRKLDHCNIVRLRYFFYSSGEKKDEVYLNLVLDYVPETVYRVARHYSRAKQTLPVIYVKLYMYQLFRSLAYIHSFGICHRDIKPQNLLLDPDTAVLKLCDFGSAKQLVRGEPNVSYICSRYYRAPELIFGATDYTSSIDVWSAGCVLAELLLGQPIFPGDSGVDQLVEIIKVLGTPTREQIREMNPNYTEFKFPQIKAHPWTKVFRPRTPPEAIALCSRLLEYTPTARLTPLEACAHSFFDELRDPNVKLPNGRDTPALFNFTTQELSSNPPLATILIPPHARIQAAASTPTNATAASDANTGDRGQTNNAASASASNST
Method: Representative compounds were screened using the assay procedure for GSK30 kinase activity as described below.
Each compound is dissolved in DMSO as a 10 mM stock and used to prepare compound source plates. Serial dilution (1:3, 11-point dose-response curves from 10 M to 0.0003 μM) and compound transfer was performed using the ECHO 550 (Labcyte, Sunnyvale, Calif.) into 1536-well black-walled round bottom plates (Corning).
This is a non-radioactive assay using fluorescence resonance energy transfer (FRET) between coumarin and fluorescein to detect kinase activity which is represented as ratio of coumarin emission/fluorescein emission.
The mixture is allowed to incubate with the representative compounds for one hour at room temperature. All reactions were performed in duplicate. Unphosphorylated (“0% Control”) and phosphorylated (“100% control”) forms of Ser/Thr 18 serve as control reactions.
After incubation, diluted Development Buffer is added to the reaction and allowed to further incubate for one hour at room temperature.
The percent phosphorylation is then calculated using the following formula: [1−((Em ratio×F100%)−C100%)/((C0%−C100%)+(Em ratio×(F100%−F0%)))].
Dose-response curves are generated and inhibitory concentration (IC50) values are calculated using non-linear regression curve fit in the Dotmatics' Studies Software (Bishops Stortford, UK).

[5] = Homo sapiens, 96 h; cell viability, SW480 cells, four days, CellTiter-Glo
[6] = Homo sapiens, SW480, read-out: percent inhibition at 10 μM
[7] = Homo sapiens, SW480; read-out: percent inhibition at 10 μM

Row | Structure (SMILES) | EC50 [1] | EC50 [2, 5] | EC50 [4] | EC50 [3] | inhibition at 10 µM [2, 6] | inhibition at 10 µM [3] | inhibition at 10 µM [2, 7]
1 | Cc1nnc(-c2ccc3cnc(NC(=O)[C@H]4CC[C@H](N(C)C)CC4)cc3c2)s1 [Compound 22, trans-4-(Dimethylamino)-N-(6-(5-methyl-1,3,4-thiadiazol-2-yl)isoquinolin-3-yl)cyclohexane-1-carboxamide] | 5 nM | 2050 nM | 22 nM | 602 nM |  |  | 
2 | Cc1cn2c(n1)CN(C(=O)Nc1cc3cc(-c4nnc(C)s4)ccc3cn1)CC2 [Compound 58, 2-Methyl-N-(6-(5-methyl-1,3,4-thiadiazol-2-yl)isoquinolin-3-yl)-5,6-dihydroimidazo[1,2-a]pyrazine-7(8H)-carboxamide] | 6 nM | 547 nM | 7 nM | 788 nM |  |  | 
3 | CN1CC2CCC(C1)N2C(=O)Nc1cc2cc(-c3cnn(C)c3)ccc2cn1 [Compound 61, 3-Methyl-N-(6-(1-methyl-1H-pyrazol-4-yl)isoquinolin-3-yl)-3,8-diazabicyclo[3.2.1]octane-8-carboxamide] | 7 nM | > 10000 nM | 9210 nM | 2770 nM | 13.1% |  | 
4 | Cc1nnc(-c2ccc3cnc(NC(=O)N4C5CCC4CN(C)C5)cc3c2)s1 [Compound 108, 3-Methyl-N-(6-(5-methyl-1,3,4-thiadiazol-2-yl)isoquinolin-3-yl)-3,8-diazabicyclo[3.2.1]octane-8-carboxamide] | 10 nM | > 10000 nM | 671 nM | > 10000 nM | 7.8% | 18.2% | 
5 | Cc1nnc(-c2ccc3cnc(NC(=O)N4[C@@H]5CC[C@H]4C[C@H](NCCC(F)(F)F)C5)cc3c2)s1 [Compound 153, (1R,5S)-N-(6-(5-Methyl-1,3,4-thiadiazol-2-yl)isoquinolin-3-yl)-3-exo-((3,3,3-trifluoropropyl)amino)-8-azabicyclo[3.2.1]octane-8-carboxamide] | 28 nM | > 10000 nM | 532 nM | > 10000 nM | 0% | 9% | 
6 | Cc1ncc(-c2ccc3cnc(NC(=O)[C@H]4CC[C@H](NCCF)CC4)cc3c2)o1 [Compound 155, trans-4-((2-fluoroethyl)amino)-N-(6-(2-methyloxazol-5-yl)isoquinolin-3-yl) cyclohexane-1-carboxamide] | 8 nM | 807 nM | 668 nM | 1060 nM |  |  | 
7 | Cc1nnc(-c2ccc3cnc(NC(=O)N4[C@@H]5CC[C@H]4C[C@@H](NCCC(F)(F)F)C5)cc3c2)s1 [Compound 195, (1R,5S)-cis-N-(6-(5-methyl-1,3,4-thiadiazol-2-yl)isoquinolin-3-yl)-3-((3,3,3-trifluoropropyl)amino)-8-azabicyclo[3.2.1]octane-8-carboxamide] | 5 nM | > 10000 nM | 1250 nM | > 10000 nM | 13% | 23.4% | 

The next lines start with results.

Row | EC50 [1] | EC50 [2, 5] | EC50 [4] | Structure (SMILES) | EC50 [3] | inhibition at 10 µM [2, 6] | inhibition at 10 µM [3] | inhibition at 10 µM [2, 7]
8 | 7 nM | 3990 nM | 1870 nM | C[C@@H]1CN(C(=O)Nc2cc3cc(-c4cnn(C)c4)ccc3cn2)CCN1C [Compound 67, (R)-3,4-Dimethyl-N-(6-(1-methyl-1H-pyrazol-4-yl)isoquinolin-3-yl) piperazine-1-carboxamide] | > 10000 nM |  | 5.2% | 
9 | 17 nM | 2960 nM | 320 nM | COCCN[C@H]1CC[C@H](C(=O)Nc2cc3cc(-c4cnc(C)o4)ccc3cn2)CC1 [Compound 106, trans-4-((2-Methoxyethyl)amino)-N-(6-(2-methyloxazol-5-yl)isoquinolin-3-yl)cyclohexane-1-carboxamide] | 707 nM |  |  | 
10 | 6 nM | 6110 nM | 194 nM | COCCN[C@H]1CC[C@H](C(=O)Nc2cc3cc(-c4cnn(C)c4)ccc3cn2)CC1 [Compound 196, trans-4-((2-Methoxyethyl)amino)-N-(6-(1-methyl-1H-pyrazol-4-yl)isoquinolin-3-yl)cyclohexane-1-carboxamide] | 184 nM |  |  | 
11 | 24 nM | > 10000 nM | 4500 nM | Cc1nnc(-c2cc(F)c3cnc(NC(=O)N(C)C4CCN(C)CC4)cc3c2)s1 [Compound 227, 3-(8-Fluoro-6-(5-methyl-1,3,4-thiadiazol-2-yl)isoquinolin-3-yl)-1-methyl-1-(1-methylpiperidin-4-yl)urea] |  |  |  | 1.9%
12 | 12 nM | > 10000 nM | 255 nM | CN1CCC(N(C)C(=O)Nc2cc3cc(-c4cn(C)nn4)cc(F)c3cn2)CC1 [Compound 228, 3-(8-Fluoro-6-(1-methyl-1H-1,2,3-triazol-4-yl)isoquinolin-3-yl)-1-methyl-1-(1-methylpiperidin-4-yl)urea] | 9980 nM |  |  | 
13 | 21 nM | > 10000 nM | 3640 nM | CN1CCC(N(C)C(=O)Nc2cc3cc(-c4cnn(C)c4)cc(F)c3cn2)CC1 [Compound 230, 3-(8-Fluoro-6-(1-methyl-1H-pyrazol-4-yl)isoquinolin-3-yl)-1-methyl-1-(1-methylpiperidin-4-yl)urea] | 6330 nM |  |  | 31.9%
14 | 16 nM | > 10000 nM | 2820 nM | Cc1ncc(-c2ccc3cnc(NC(=O)N(C)C4CCN(C)CC4)cc3c2)o1 [Compound 231, 1-Methyl-3-(6-(2-methyloxazol-5-yl)isoquinolin-3-yl)-1-(1-methylpiperidin-4-yl)urea] | 2950 nM |  |  | 41.6%
